Drawing on PubChem BioAssay (NCI), this text covers TGI for 15 molecules.

The structures appear in SMILES notation.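 Five concentrations, 48 hours, 96-well plates. At the TGI there is no net growth.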

For one assay, the system named is SN12C renal. Briefly: NCI anticancer screen, dose series, 48 h.
`O=C1c2cccc3cccc(c23)C(=O)N1CCCNCCCNCCCCNCCCNCCCN1C(=O)c2cccc3cccc(c23)C1=O` came in with a TGI of 16.4 µM.
`C#CC(C)(C)OC(=O)C(=[N+]=[N-])C(C)=O` showed a TGI of more than 10 µM.
As for `Nc1nc(NCC2(CO)CC2)cc(=O)[nH]1`, the TGI was more than 100 µM.
Turning to `CCOC(=O)/C=C/[C@H](O[Si](CC)(CC)CC)C(C)(C)C`, the TGI was more than 100 µM.
`Cc1ccc(-c2n[nH]c(=O)n2/N=C\c2ccc([N+](=O)[O-])cc2)cc1` showed a TGI of more than 100 µM.
As for `CC(CO)CCNc1ncnc2c1ncn2CCC(=O)OC(C)(C)C` (configuration not stated), the TGI was more than 100 µM.
For `Nc1nc(Cl)c(N)c(NCC2(CO)CCCC2)n1`, the TGI was more than 100 µM.
Molecule `COc1ccc2c(c1)nc1n2C(c2c(Cl)cccc2Cl)SC1` (configuration not stated) displayed a TGI of more than 100 µM.
`CN(C)c1ccc(/C=N\NC(=O)Nc2cccc3ccccc23)cc1` yielded a TGI of 31.4 µM.
In the case of `S=C1SSC2N=CC=CC12` (configuration not stated), the TGI is more than 100 µM.
On the same count and under the same terms, the result for `CNC(=S)N=Nc1c(O)n(CN2CCOCC2)c2ccc([N+](=O)[O-])cc12` reads 38.5 µM; that for `[N-]=[N+]=Nc1cc(=O)[nH]nc1-c1ccccc1`, more than 100 µM.
For the molecule `O=C(NCCCl)N(O)C(=O)Nc1ccccc1`, the TGI is more than 100 µM.
`O=C(/N=C/c1c(O)c2ccccc2oc1=O)Oc1ccccc1` showed a TGI of 51.7 µM.

The next assay relates to U251 CNS. The experiment in a line: NCI anticancer screen, dose series, 48 h.
The molecule `O=C1c2cccc3cccc(c23)C(=O)N1CCCNCCCNCCCCNCCCNCCCN1C(=O)c2cccc3cccc(c23)C1=O` yielded a TGI of 20.2 µM.
The molecule `C#CC(C)(C)OC(=O)C(=[N+]=[N-])C(C)=O` displayed a TGI of more than 10 µM.
On to `Nc1nc(NCC2(CO)CC2)cc(=O)[nH]1`, for which the TGI is more than 100 µM.
Still for that read-out and setting: the result for `CCOC(=O)/C=C/[C@H](O[Si](CC)(CC)CC)C(C)(C)C` reads 65.8 µM; that for `Cc1ccc(-c2n[nH]c(=O)n2/N=C\c2ccc([N+](=O)[O-])cc2)cc1`, more than 100 µM.
Still for that read-out and setting: the result for `Nc1nc(Cl)c(N)c(NCC2(CO)CCCC2)n1` reads more than 100 µM.
Molecule `COc1ccc2c(c1)nc1n2C(c2c(Cl)cccc2Cl)SC1` (configuration not stated) showed a TGI of more than 65.5 µM.
Same read-out and setting: the result for `CCOC(=O)c1c(NC(=O)OC)c(C#N)c2n1CCCCC2` reads more than 100 µM; that for `CN(C)c1ccc(/C=N\NC(=O)Nc2cccc3ccccc23)cc1`, 39.5 µM.
Molecule `S=C1SSC2N=CC=CC12` (configuration not stated) yielded a TGI of more than 100 µM.
Turning to `CNC(=S)N=Nc1c(O)n(CN2CCOCC2)c2ccc([N+](=O)[O-])cc12`, the TGI worked out at 37.6 µM.
For the molecule `[N-]=[N+]=Nc1cc(=O)[nH]nc1-c1ccccc1`, the TGI was more than 100 µM.
For `O=C(NCCCl)N(O)C(=O)Nc1ccccc1`, the TGI is more than 100 µM.
Turning to `O=C(/N=C/c1c(O)c2ccccc2oc1=O)Oc1ccccc1`, the TGI came to 87.5 µM.

A further assay concerns EKVX NSCLC. The experiment in a line: NCI anticancer screen, dose series, 48 h.
In turn, `O=C1c2cccc3cccc(c23)C(=O)N1CCCNCCCNCCCCNCCCNCCCN1C(=O)c2cccc3cccc(c23)C1=O` came in with a TGI of 22 µM.
In turn, `C#CC(C)(C)OC(=O)C(=[N+]=[N-])C(C)=O` gave a TGI of more than 10 µM.
Regarding `Nc1nc(NCC2(CO)CC2)cc(=O)[nH]1`, the TGI was more than 100 µM.
As for `CCOC(=O)/C=C/[C@H](O[Si](CC)(CC)CC)C(C)(C)C`, the TGI was more than 100 µM.
For `Cc1ccc(-c2n[nH]c(=O)n2/N=C\c2ccc([N+](=O)[O-])cc2)cc1`, the TGI was more than 100 µM.
Molecule `CC(CO)CCNc1ncnc2c1ncn2CCC(=O)OC(C)(C)C` (configuration not stated) registered a TGI of more than 100 µM.
`Nc1nc(Cl)c(N)c(NCC2(CO)CCCC2)n1` displayed a TGI of more than 100 µM.
The same measure, in the same setting: the result for `COc1ccc2c(c1)nc1n2C(c2c(Cl)cccc2Cl)SC1` (configuration not stated) reads more than 100 µM; that for `CCOC(=O)c1c(NC(=O)OC)c(C#N)c2n1CCCCC2`, more than 100 µM.
`CN(C)c1ccc(/C=N\NC(=O)Nc2cccc3ccccc23)cc1` showed a TGI of more than 100 µM.
Take `S=C1SSC2N=CC=CC12` (configuration not stated): the TGI is more than 100 µM.
With `CNC(=S)N=Nc1c(O)n(CN2CCOCC2)c2ccc([N+](=O)[O-])cc12`, the TGI was determined as 43.7 µM.
The molecule `[N-]=[N+]=Nc1cc(=O)[nH]nc1-c1ccccc1` had a TGI of more than 100 µM.
On to `O=C(NCCCl)N(O)C(=O)Nc1ccccc1`, for which the TGI is more than 100 µM.
Molecule `O=C(/N=C/c1c(O)c2ccccc2oc1=O)Oc1ccccc1` came in with a TGI of more than 100 µM.

A further assay concerns SK-OV-3 ovarian. The experiment in a line: NCI anticancer screen, dose series, 48 h.
In the case of `O=C1c2cccc3cccc(c23)C(=O)N1CCCNCCCNCCCCNCCCNCCCN1C(=O)c2cccc3cccc(c23)C1=O`, the TGI was 32.1 µM.
Consider `C#CC(C)(C)OC(=O)C(=[N+]=[N-])C(C)=O`, for which the TGI was more than 10 µM.
`Nc1nc(NCC2(CO)CC2)cc(=O)[nH]1` had a TGI of more than 100 µM.
`CCOC(=O)/C=C/[C@H](O[Si](CC)(CC)CC)C(C)(C)C`: the TGI was more than 100 µM.
Take `Cc1ccc(-c2n[nH]c(=O)n2/N=C\c2ccc([N+](=O)[O-])cc2)cc1`: the TGI was more than 100 µM.
Still for that read-out and setting: in the case of `CC(CO)CCNc1ncnc2c1ncn2CCC(=O)OC(C)(C)C` (configuration not stated) it was more than 100 µM; in that of `Nc1nc(Cl)c(N)c(NCC2(CO)CCCC2)n1`, 24.2 µM; in that of `COc1ccc2c(c1)nc1n2C(c2c(Cl)cccc2Cl)SC1` (configuration not stated), more than 100 µM.
Molecule `CCOC(=O)c1c(NC(=O)OC)c(C#N)c2n1CCCCC2` returned a TGI of more than 100 µM.
The molecule `S=C1SSC2N=CC=CC12` (configuration not stated) registered a TGI of more than 100 µM.
The molecule `CNC(=S)N=Nc1c(O)n(CN2CCOCC2)c2ccc([N+](=O)[O-])cc12` registered a TGI of 31.9 µM.
In turn, `[N-]=[N+]=Nc1cc(=O)[nH]nc1-c1ccccc1` displayed a TGI of more than 100 µM.
For `O=C(NCCCl)N(O)C(=O)Nc1ccccc1`, the TGI was more than 100 µM.
`O=C(/N=C/c1c(O)c2ccccc2oc1=O)Oc1ccccc1` came in with a TGI of 66 µM.

The subject of the next assay is HS 578T breast. Briefly: NCI anticancer screen, dose series, 48 h.
For the molecule `O=C1c2cccc3cccc(c23)C(=O)N1CCCNCCCNCCCCNCCCNCCCN1C(=O)c2cccc3cccc(c23)C1=O`, the TGI was found to be 13.3 µM.
Turning to `C#CC(C)(C)OC(=O)C(=[N+]=[N-])C(C)=O`, the TGI is more than 10 µM.
In the case of `Nc1nc(NCC2(CO)CC2)cc(=O)[nH]1`, the TGI was more than 100 µM.
`CCOC(=O)/C=C/[C@H](O[Si](CC)(CC)CC)C(C)(C)C` came in with a TGI of more than 100 µM.
`Cc1ccc(-c2n[nH]c(=O)n2/N=C\c2ccc([N+](=O)[O-])cc2)cc1` yielded a TGI of more than 100 µM.
Consider `CC(CO)CCNc1ncnc2c1ncn2CCC(=O)OC(C)(C)C` (configuration not stated), for which the TGI was more than 100 µM.
`Nc1nc(Cl)c(N)c(NCC2(CO)CCCC2)n1`: the TGI was more than 100 µM.
As for `COc1ccc2c(c1)nc1n2C(c2c(Cl)cccc2Cl)SC1` (configuration not stated), the TGI is 49.4 µM.
For the molecule `CCOC(=O)c1c(NC(=O)OC)c(C#N)c2n1CCCCC2`, the TGI is more than 100 µM.
Same read-out and setting: the result for `CN(C)c1ccc(/C=N\NC(=O)Nc2cccc3ccccc23)cc1` reads 23.1 µM; that for `S=C1SSC2N=CC=CC12` (configuration not stated), more than 100 µM; that for `CNC(=S)N=Nc1c(O)n(CN2CCOCC2)c2ccc([N+](=O)[O-])cc12`, 73 µM.
On to `[N-]=[N+]=Nc1cc(=O)[nH]nc1-c1ccccc1`, for which the TGI is more than 100 µM.
On the same count and under the same terms, the result for `O=C(NCCCl)N(O)C(=O)Nc1ccccc1` reads more than 100 µM.
Molecule `O=C(/N=C/c1c(O)c2ccccc2oc1=O)Oc1ccccc1` gave a TGI of 32.1 µM.
